Measurements published in ChEMBL document CHEMBL5257023, “Identification of leads for antiproliferative activity on MDA-MB-435 human breast cancer cells through pharmacophore and CYP1A1-mediated metabolism” (Eur J Med Chem, 2016).

Tests used:
[1] = system: MDA-MB-468; assay: Anticancer activity against human MDA-MB-468 cells assessed as inhibition of cell growth incubated for 48 hrs by SRB assay; format: functional; settings: for CC50: read-out: LC50 (the source's name)
[2] = system: MCF7; assay: Anticancer activity against human MCF7 cells assessed as inhibition of cell growth incubated for 48 hrs by SRB assay; format: functional; settings: for CC50: read-out: LC50 (the source's name)
[3] = system: MDA-MB-435; assay: Anticancer activity against human MDA-MB-435 cells assessed as inhibition of cell growth incubated for 48 hrs by SRB assay; format: functional
[4] = system: NCI-H226; assay: Anticancer activity against human NCI-H226 cells assessed as inhibition of cell growth incubated for 48 hrs by SRB assay; format: functional
[5] = system: MDA-MB-468; assay: Anticancer activity against human MDA-MB-468 cells assessed as cell growth at 0.1 uM incubated for 48 hrs by SRB assay; format: functional; settings: read-out: Activity
[6] = system: MDA-MB-468; assay: Anticancer activity against human MDA-MB-468 cells assessed as cell growth at 1 uM incubated for 48 hrs by SRB assay; format: functional; settings: read-out: Activity
[7] = system: MDA-MB-468; assay: Anticancer activity against human MDA-MB-468 cells assessed as cell growth at 10 uM incubated for 48 hrs by SRB assay; format: functional; settings: read-out: Activity
[8] = system: MDA-MB-468; assay: Anticancer activity against human MDA-MB-468 cells assessed as cell growth at 100 uM incubated for 48 hrs by SRB assay; format: functional; settings: read-out: Activity
[9] = system: MCF7; assay: Anticancer activity against human MCF7 cells assessed as cell growth at 0.1 uM incubated for 48 hrs by SRB assay; format: functional; settings: read-out: Activity
[10] = system: MCF7; assay: Anticancer activity against human MCF7 cells assessed as cell growth at 1 uM incubated for 48 hrs by SRB assay; format: functional; settings: read-out: Activity
[11] = system: MCF7; assay: Anticancer activity against human MCF7 cells assessed as cell growth at 10 uM incubated for 48 hrs by SRB assay; format: functional; settings: read-out: Activity
[12] = system: MCF7; assay: Anticancer activity against human MCF7 cells assessed as cell growth at 100 uM incubated for 48 hrs by SRB assay; format: functional; settings: read-out: Activity
[13] = system: NCI-H226; assay: Anticancer activity against human NCI-H226 cells assessed as cell growth at 0.1 uM incubated for 48 hrs by SRB assay; format: functional; settings: read-out: Activity
[14] = system: NCI-H226; assay: Anticancer activity against human NCI-H226 cells assessed as cell growth at 1 uM incubated for 48 hrs by SRB assay; format: functional; settings: read-out: Activity
[15] = system: NCI-H226; assay: Anticancer activity against human NCI-H226 cells assessed as cell growth at 10 uM incubated for 48 hrs by SRB assay; format: functional; settings: read-out: Activity
[16] = system: NCI-H226; assay: Anticancer activity against human NCI-H226 cells assessed as cell growth at 100 uM incubated for 48 hrs by SRB assay; format: functional; settings: read-out: Activity
[17] = system: MDA-MB-435; assay: Anticancer activity against human MDA-MB-435 cells assessed as cell growth at 0.1 uM incubated for 48 hrs by SRB assay; format: functional; settings: read-out: Activity
[18] = system: MDA-MB-435; assay: Anticancer activity against human MDA-MB-435 cells assessed as cell growth at 1 uM incubated for 48 hrs by SRB assay; format: functional; settings: read-out: Activity
[19] = system: MDA-MB-435; assay: Anticancer activity against human MDA-MB-435 cells assessed as cell growth at 10 uM incubated for 48 hrs by SRB assay; format: functional; settings: read-out: Activity
[20] = system: MDA-MB-435; assay: Anticancer activity against human MDA-MB-435 cells assessed as cell growth at 100 uM incubated for 48 hrs by SRB assay; format: functional; settings: read-out: Activity
[21] = target: T1, CYP1A1 (Homo sapiens, UniProt P04798); assay: Inhibition of recombinant CYP1A1 (unknown origin) assessed as residual enzyme activity using 7-ethoxyresorufin as substrate at 0.01 uM incubated for 15 mins by resorufin dye based spectrofluorimetry (reference value: 100%); format: ADME; settings: recombinant CYP1A1, probe 7-ethoxyresorufin, read-out: Activity
T1 sequence (P04798 whole entry): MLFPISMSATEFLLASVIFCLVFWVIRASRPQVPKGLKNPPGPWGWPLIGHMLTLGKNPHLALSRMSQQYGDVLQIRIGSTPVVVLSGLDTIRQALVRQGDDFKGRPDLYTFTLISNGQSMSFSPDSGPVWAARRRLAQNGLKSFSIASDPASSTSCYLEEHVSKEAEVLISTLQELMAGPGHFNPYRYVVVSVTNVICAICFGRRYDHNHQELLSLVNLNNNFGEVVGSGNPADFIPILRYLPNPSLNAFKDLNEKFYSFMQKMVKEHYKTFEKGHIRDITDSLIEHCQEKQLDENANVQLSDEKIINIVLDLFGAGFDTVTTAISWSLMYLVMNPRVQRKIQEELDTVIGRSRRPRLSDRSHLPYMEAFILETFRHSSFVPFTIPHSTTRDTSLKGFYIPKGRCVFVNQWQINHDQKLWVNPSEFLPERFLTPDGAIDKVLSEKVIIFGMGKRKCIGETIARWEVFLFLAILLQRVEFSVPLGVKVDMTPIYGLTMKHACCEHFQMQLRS

[22] = target: T1, CYP1A1; assay: Inhibition of recombinant CYP1A1 (unknown origin) assessed as residual enzyme activity using 7-ethoxyresorufin as substrate at 0.1 uM incubated for 15 mins by resorufin dye based spectrofluorimetry (reference value: 100%); format: ADME; settings: recombinant CYP1A1, probe 7-ethoxyresorufin, read-out: Activity
[23] = target: T1, CYP1A1; assay: Inhibition of recombinant CYP1A1 (unknown origin) assessed as residual enzyme activity using 7-ethoxyresorufin as substrate at 1 uM incubated for 15 mins by resorufin dye based spectrofluorimetry (reference value: 100%); format: ADME; settings: recombinant CYP1A1, probe 7-ethoxyresorufin, read-out: Activity
[24] = target: T1, CYP1A1; assay: Inhibition of recombinant CYP1A1 (unknown origin) assessed as residual enzyme activity using 7-ethoxyresorufin as substrate at 10 uM incubated for 15 mins by resorufin dye based spectrofluorimetry (reference value: 100%); format: ADME; settings: recombinant CYP1A1, probe 7-ethoxyresorufin, read-out: Activity
[25] = target: T1, CYP1A1; assay: Inhibition of recombinant CYP1A1 (unknown origin) assessed as residual enzyme activity using 7-ethoxyresorufin as substrate at 50 uM incubated for 15 mins by resorufin dye based spectrofluorimetry (reference value: 100%); format: ADME; settings: recombinant CYP1A1, probe 7-ethoxyresorufin, read-out: Activity
[26] = target: T1, CYP1A1; assay: Inhibition of recombinant CYP1A1 (unknown origin) assessed as residual enzyme activity using 7-ethoxyresorufin as substrate at 100 uM incubated for 15 mins by resorufin dye based spectrofluorimetry (reference value: 100%); format: ADME; settings: recombinant CYP1A1, probe 7-ethoxyresorufin, read-out: Activity
[27] = target: T2, Cytochrome P450 1A1 (Homo sapiens, UniProt P04798); assay: Inhibition of recombinant CYP1A1 (unknown origin) assessed as decrease in EROD activity using 7-ethoxyresorufin as substrate upto 100 uM incubated for 15 mins by resorufin dye based spectrofluorimetry; format: ADME; settings: recombinant enzyme, 0.25 h
T2 sequence (P04798 whole entry): T1 sequence (P04798 whole entry)

[28] = target: T2, Cytochrome P450 1A1; assay: Inhibition of recombinant CYP1A1 (unknown origin) assessed as decrease in EROD activity using 7-ethoxyresorufin as substrate incubated for 15 mins by resorufin dye based spectrofluorimetry; format: ADME

| SMILES | GI50 [1] [µM] | TGI [1] [µM] | CC50 [1] [µM] | GI50 [2] [µM] | TGI [2] [µM] | CC50 [2] [µM] | GI50 [3] [µM] | LC50 [3] [µM] | TGI [3] [µM] | GI50 [4] [µM] | LC50 (concentration killing 50% of cells) [4] [µM] | TGI [4] [µM] | growth at 0.1 µM [5] [%] | growth at 1 µM [6] [%] | growth at 10 µM [7] [%] | growth at 100 µM [8] [%] | growth at 0.1 µM [9] [%] | growth at 1 µM [10] [%] | growth at 10 µM [11] [%] | growth at 100 µM [12] [%] | also measured |
| --- | --- | --- | --- | --- | --- | --- | --- | --- | --- | --- | --- | --- | --- | --- | --- | --- | --- | --- | --- | --- | --- |
| Cc1nn(C[C@@H](O)COc2ccc3c(C)cc(=O)oc3c2)c(C)c1C | 76.6 | > 100 | > 100 | 52.5 | > 100 | > 100 | > 100 | > 100 | > 100 | 96.5 | > 100 | > 100 | 100 | 98 | 94.8 | 33.7 | 80.4 | 74.2 | 69.2 | 25.3 | growth at 0.1 µM [13]: 88.9%; growth at 1 µM [14]: 77.5%; growth at 10 µM [15]: 72.8%; growth at 100 µM [16]: 49.1%; growth at 0.1 µM [17]: 100%; growth at 1 µM [18]: 100%; growth at 10 µM [19]: 100%; growth at 100 µM [20]: 77.9%; activity at 0.25 h, 0.01 µM [21]: 99.3%; activity at 0.25 h, 0.1 µM [22]: 98.4%; activity at 0.25 h, 1 µM [23]: 96.7%; activity at 0.25 h, 10 µM [24]: 96.7%; activity at 0.25 h, 50 µM [25]: 101%; activity at 0.25 h, 100 µM [26]: 103%; inhibition (INH) [27]: Not Active |
| Cc1cc(C)n(C(=O)CCn2nc(C)c(Cl)c2C)n1 | > 100 | > 100 | > 100 | 54.8 | > 100 | > 100 | > 100 | > 100 | > 100 | > 100 | > 100 | > 100 | 100 | 100 | 97.7 | 68.3 | 85.9 | 78.7 | 74 | 22.9 | IC50 [28]: 10 µM; growth at 0.1 µM [13]: 80.4%; growth at 1 µM [14]: 77.6%; growth at 10 µM [15]: 71.4%; growth at 100 µM [16]: 55.6%; growth at 0.1 µM [17]: 100%; growth at 1 µM [18]: 100%; growth at 10 µM [19]: 100%; growth at 100 µM [20]: 84.9%; activity at 0.25 h, 0.01 µM [21]: 79.9%; activity at 0.25 h, 0.1 µM [22]: 62.2%; activity at 0.25 h, 1 µM [23]: 52.9%; activity at 0.25 h, 10 µM [24]: 50.6%; activity at 0.25 h, 50 µM [25]: 36.4%; activity at 0.25 h, 100 µM [26]: 35.1% |
